Data taken from ChEMBL document CHEMBL4400533, “Histone deacetylase 3 inhibitors in learning and memory processes with special emphasis on benzamides” (Eur J Med Chem, 2019).

Columns and labels:
[1] = target: T1, Histone deacetylase 1 (Homo sapiens, UniProt Q13547); experiment: Inhibition of HDAC1 (unknown origin) using (FAM)-labeled acetylated peptide as substrate measured after 17 hrs by fluorescence assay
[2] = target: T2, Polyamine deacetylase HDAC10 (Homo sapiens, UniProt Q969S8); experiment: Inhibition of HDAC10 (unknown origin) using (FAM)-labeled acetylated peptide as substrate measured after 17 hrs by fluorescence assay
T2 sequence (Q969S8 whole entry): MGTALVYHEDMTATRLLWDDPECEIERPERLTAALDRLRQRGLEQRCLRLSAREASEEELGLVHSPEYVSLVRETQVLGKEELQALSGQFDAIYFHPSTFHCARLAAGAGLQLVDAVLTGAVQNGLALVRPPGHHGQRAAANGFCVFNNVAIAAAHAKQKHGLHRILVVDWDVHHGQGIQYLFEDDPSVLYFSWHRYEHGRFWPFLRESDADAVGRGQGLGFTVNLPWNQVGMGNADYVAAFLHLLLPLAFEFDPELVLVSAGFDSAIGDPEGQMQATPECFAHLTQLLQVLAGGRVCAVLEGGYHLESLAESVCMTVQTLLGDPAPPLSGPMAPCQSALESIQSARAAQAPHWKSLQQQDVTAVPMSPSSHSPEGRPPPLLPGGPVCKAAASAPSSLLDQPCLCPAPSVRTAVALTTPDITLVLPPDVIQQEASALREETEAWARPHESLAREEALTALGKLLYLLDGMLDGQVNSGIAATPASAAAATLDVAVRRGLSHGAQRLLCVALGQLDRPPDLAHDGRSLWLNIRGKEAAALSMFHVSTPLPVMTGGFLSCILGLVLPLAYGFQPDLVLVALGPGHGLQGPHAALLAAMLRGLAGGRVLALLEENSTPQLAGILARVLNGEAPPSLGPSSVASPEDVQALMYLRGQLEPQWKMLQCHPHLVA

[3] = target: T3, Histone deacetylase 8 (Homo sapiens, UniProt Q9BY41); experiment: Inhibition of HDAC8 (unknown origin) using (FAM)-labeled acetylated peptide as substrate measured after 17 hrs by fluorescence assay
T3 sequence (Q9BY41 whole entry): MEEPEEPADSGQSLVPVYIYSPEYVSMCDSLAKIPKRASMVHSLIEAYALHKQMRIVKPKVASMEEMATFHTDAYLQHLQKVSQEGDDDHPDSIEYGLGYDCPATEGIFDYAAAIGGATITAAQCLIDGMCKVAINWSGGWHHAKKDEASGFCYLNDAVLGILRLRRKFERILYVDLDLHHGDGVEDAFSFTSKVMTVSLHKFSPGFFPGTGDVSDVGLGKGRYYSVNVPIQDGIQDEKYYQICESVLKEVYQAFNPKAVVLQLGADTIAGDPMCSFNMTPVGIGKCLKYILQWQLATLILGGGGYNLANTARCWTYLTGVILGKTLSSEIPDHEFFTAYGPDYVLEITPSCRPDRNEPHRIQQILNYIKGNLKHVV

[4] = target: Histone deacetylase 3 (Homo sapiens, UniProt O15379); experiment: Inhibition of HDAC3 (unknown origin) using (FAM)-labeled acetylated peptide as substrate measured after 17 hrs by fluorescence assay
Chain of Histone deacetylase 3 (O15379 whole entry): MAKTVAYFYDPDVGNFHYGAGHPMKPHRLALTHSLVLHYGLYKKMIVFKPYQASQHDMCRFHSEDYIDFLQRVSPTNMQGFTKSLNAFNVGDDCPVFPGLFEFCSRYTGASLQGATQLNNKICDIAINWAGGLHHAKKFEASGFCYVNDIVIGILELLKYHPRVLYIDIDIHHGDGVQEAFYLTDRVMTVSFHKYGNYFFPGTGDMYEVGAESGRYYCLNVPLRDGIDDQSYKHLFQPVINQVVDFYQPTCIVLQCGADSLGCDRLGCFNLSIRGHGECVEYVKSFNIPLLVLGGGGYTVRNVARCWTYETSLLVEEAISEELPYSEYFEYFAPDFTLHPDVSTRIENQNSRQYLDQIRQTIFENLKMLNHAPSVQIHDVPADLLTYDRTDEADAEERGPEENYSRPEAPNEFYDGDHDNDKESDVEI

[5] = target: T4, Protein deacetylase HDAC6 (Homo sapiens, UniProt Q9UBN7); experiment: Inhibition of HDAC6 (unknown origin) using (FAM)-labeled acetylated peptide as substrate measured after 17 hrs by fluorescence assay
T4 sequence (Q9UBN7 whole entry): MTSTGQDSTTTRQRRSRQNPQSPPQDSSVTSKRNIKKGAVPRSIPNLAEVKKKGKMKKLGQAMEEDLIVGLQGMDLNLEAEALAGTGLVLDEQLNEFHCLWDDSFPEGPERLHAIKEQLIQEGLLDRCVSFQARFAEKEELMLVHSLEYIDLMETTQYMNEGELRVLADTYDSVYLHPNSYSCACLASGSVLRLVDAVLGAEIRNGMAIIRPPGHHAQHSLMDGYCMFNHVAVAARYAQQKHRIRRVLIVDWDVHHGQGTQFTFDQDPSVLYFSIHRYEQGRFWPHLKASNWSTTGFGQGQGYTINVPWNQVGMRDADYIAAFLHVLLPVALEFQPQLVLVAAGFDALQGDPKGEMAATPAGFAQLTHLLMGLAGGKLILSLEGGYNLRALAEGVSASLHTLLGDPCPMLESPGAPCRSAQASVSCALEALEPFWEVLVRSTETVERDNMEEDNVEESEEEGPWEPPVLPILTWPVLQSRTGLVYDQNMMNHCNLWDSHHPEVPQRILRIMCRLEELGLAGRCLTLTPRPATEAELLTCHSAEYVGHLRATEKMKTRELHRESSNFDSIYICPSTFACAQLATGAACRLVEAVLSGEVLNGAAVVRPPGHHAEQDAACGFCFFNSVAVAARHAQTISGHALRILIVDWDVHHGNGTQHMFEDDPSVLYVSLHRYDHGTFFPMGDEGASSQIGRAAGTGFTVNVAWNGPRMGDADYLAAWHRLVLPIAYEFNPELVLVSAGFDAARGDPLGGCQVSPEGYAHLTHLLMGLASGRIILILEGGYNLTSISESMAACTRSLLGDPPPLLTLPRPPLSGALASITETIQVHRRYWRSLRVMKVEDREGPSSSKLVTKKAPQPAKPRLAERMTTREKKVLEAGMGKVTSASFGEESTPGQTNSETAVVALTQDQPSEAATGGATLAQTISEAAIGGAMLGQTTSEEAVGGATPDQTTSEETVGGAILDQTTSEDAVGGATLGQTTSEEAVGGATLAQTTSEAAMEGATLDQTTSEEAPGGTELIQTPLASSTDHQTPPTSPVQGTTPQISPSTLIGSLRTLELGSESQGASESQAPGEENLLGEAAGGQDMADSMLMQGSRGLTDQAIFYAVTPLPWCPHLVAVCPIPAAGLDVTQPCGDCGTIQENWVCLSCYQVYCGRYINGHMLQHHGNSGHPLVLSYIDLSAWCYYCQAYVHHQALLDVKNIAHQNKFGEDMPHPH

[6] = target: T5, Histone deacetylase 2 (Homo sapiens, UniProt Q92769); experiment: Inhibition of HDAC2 (unknown origin) using (FAM)-labeled acetylated peptide as substrate measured after 17 hrs by fluorescence assay
T5 sequence (Q92769 whole entry): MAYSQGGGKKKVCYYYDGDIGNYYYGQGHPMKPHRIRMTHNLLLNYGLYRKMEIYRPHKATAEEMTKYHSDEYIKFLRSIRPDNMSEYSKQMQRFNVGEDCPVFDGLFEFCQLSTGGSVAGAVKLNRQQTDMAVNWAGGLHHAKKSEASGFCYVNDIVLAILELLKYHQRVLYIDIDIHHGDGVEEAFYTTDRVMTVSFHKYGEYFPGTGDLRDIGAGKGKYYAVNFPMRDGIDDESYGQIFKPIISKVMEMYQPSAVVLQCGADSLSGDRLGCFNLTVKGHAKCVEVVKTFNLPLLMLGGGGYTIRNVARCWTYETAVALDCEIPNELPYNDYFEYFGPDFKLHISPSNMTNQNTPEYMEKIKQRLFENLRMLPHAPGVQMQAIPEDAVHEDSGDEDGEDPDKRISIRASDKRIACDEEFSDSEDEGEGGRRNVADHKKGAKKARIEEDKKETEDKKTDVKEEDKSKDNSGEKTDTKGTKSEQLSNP

[7] = target: T6, Histone deacetylase 7 (Homo sapiens, UniProt Q8WUI4); experiment: Inhibition of HDAC7 (unknown origin)
T6 sequence (Q8WUI4 whole entry): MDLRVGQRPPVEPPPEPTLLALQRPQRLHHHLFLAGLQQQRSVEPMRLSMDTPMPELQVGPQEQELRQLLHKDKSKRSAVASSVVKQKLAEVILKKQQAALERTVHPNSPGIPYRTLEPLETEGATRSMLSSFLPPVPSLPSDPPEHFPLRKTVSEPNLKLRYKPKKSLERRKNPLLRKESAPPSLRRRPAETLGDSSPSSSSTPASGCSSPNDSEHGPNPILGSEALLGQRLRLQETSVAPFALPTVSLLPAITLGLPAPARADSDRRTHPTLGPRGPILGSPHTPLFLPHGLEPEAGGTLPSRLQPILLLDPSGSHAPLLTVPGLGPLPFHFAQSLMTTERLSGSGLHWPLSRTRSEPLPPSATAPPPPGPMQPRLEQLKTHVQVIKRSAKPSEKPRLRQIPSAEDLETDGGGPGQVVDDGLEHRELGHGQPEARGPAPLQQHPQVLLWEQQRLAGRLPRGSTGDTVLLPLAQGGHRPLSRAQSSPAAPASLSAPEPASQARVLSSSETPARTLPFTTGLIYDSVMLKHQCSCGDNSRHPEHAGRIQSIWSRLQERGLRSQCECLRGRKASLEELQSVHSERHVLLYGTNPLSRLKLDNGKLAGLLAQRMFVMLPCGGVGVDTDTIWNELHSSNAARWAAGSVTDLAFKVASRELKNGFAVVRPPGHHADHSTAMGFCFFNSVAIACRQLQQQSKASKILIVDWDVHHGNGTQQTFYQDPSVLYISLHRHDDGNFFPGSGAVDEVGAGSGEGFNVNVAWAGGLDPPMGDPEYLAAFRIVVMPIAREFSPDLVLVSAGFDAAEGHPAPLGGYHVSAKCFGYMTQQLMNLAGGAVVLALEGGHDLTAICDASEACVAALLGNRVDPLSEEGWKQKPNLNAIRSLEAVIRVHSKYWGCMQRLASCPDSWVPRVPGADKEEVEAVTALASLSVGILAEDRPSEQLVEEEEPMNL

[8] = target: T7, Histone deacetylase 4 (Homo sapiens, UniProt P56524); experiment: Inhibition of HDAC4 (unknown origin)
T7 sequence (P56524 whole entry): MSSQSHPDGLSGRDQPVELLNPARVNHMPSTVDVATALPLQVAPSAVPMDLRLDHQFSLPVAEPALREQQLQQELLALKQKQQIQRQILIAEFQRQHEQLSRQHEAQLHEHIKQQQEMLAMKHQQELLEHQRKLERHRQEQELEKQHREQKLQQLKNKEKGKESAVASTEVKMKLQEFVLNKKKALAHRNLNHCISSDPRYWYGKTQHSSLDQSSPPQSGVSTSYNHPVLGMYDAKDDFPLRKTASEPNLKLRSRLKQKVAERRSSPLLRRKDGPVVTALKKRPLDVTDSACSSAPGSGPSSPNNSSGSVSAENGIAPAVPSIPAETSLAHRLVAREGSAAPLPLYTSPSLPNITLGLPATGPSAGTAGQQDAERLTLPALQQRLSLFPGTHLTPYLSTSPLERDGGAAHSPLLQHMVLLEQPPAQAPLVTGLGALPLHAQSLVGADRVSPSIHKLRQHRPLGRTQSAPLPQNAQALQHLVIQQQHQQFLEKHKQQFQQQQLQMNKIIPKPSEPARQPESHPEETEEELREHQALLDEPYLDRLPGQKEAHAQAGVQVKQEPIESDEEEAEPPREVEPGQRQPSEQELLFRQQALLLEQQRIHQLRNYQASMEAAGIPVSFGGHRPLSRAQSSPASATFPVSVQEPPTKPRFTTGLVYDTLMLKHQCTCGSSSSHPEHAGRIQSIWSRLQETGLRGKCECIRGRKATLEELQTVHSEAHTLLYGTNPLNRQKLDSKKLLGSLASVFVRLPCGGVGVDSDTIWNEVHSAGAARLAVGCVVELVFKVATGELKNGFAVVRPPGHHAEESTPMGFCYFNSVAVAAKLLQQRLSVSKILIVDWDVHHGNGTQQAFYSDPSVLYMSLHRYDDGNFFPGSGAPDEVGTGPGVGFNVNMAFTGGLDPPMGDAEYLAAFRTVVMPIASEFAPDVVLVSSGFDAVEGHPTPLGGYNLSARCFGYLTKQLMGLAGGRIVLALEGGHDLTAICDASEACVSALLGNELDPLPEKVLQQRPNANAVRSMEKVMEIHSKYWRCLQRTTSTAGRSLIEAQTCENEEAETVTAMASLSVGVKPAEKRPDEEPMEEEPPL

[9] = target: Histone deacetylase 5 (Homo sapiens, UniProt Q9UQL6); experiment: Inhibition of HDAC5 (unknown origin)
Chain of Histone deacetylase 5 (Q9UQL6 whole entry, the tested form may be a part): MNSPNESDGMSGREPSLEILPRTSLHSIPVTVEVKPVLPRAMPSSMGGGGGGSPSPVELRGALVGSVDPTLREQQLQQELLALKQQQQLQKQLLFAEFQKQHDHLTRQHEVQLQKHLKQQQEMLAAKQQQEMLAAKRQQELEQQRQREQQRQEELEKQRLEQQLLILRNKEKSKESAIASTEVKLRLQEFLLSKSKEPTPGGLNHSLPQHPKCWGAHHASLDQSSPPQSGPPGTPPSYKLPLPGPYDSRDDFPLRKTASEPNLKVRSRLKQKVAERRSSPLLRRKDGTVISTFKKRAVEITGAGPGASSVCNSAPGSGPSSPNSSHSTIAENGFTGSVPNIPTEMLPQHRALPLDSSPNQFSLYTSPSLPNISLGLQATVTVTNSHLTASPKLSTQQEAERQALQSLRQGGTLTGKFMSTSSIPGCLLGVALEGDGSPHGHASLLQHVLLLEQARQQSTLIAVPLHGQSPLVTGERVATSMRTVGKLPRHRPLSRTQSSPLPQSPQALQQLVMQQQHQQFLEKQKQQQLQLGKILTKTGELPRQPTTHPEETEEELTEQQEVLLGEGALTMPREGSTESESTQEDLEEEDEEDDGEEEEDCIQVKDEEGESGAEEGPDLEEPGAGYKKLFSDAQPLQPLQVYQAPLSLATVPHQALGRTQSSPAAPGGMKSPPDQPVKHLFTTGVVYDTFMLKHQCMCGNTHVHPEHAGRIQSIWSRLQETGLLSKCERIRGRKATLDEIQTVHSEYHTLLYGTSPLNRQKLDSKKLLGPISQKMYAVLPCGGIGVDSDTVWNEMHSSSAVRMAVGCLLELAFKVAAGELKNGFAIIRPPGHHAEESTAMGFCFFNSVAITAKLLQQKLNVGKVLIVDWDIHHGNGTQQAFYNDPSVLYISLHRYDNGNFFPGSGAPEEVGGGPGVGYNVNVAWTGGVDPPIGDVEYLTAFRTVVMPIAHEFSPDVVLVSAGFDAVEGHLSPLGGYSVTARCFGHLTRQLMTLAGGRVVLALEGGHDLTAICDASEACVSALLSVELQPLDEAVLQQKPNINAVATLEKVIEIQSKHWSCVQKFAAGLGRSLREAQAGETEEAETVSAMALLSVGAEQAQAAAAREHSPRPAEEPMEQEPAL

[10] = target: Histone deacetylase 3/NCoR1 (Homo sapiens, UniProt O15379); experiment: Inhibition of human recombinant HDAC3/GST-tagged NCOR1 DAD (397 to 503 residues) expressed in baculovirus expression system by fluorescence assay
[11] = target: T4, Protein deacetylase HDAC6; experiment: Inhibition of recombinant human full length N-terminal GST-tagged HDAC6 expressed in Sf9 insect cells using (S)-6-acetamido-2-(2-((S)-2-acetamido-4-methylpentanamido)acetamido)-N-(4-methyl-2-oxo-2H-chromen-7-yl)hexanamide as substrate by fluorescence assay
[12] = Dissociation constant, pKa of the compound; assay type: physicochemical
[13] = target: T4, Protein deacetylase HDAC6; experiment: Inhibition of recombinant human HDAC6 using fluorescently-labeled acetylated histone peptide as substrate by microfluidic mobility shift assay
[14] = target: T7, Histone deacetylase 4; experiment: Inhibition of recombinant human HDAC4 using fluorescently-labeled acetylated histone peptide as substrate by microfluidic mobility shift assay
[15] = target: T1, Histone deacetylase 1; experiment: Inhibition of recombinant human HDAC1 using fluorescently-labeled acetylated histone peptide as substrate by microfluidic mobility shift assay
[16] = target: T5, Histone deacetylase 2; experiment: Inhibition of recombinant human HDAC2 using fluorescently-labeled acetylated histone peptide as substrate by microfluidic mobility shift assay
[17] = target: T6, Histone deacetylase 7; experiment: Inhibition of recombinant human HDAC7 using fluorescently-labeled acetylated histone peptide as substrate by microfluidic mobility shift assay
[18] = target: T3, Histone deacetylase 8; experiment: Inhibition of recombinant human HDAC8 using fluorescently-labeled acetylated histone peptide as substrate by microfluidic mobility shift assay

T1 sequence (Q13547 whole entry): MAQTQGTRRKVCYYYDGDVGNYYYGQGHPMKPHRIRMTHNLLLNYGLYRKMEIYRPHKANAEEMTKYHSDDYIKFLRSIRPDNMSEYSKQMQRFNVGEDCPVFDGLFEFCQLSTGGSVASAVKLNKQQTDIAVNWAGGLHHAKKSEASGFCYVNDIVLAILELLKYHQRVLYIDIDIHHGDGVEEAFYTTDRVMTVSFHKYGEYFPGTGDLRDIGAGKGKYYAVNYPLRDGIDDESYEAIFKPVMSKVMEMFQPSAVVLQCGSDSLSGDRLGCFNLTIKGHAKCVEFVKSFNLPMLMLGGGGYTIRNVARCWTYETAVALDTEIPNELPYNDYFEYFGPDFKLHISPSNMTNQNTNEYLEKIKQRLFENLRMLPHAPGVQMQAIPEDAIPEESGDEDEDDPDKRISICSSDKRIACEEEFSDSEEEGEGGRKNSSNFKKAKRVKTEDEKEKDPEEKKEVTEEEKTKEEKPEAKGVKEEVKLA

| Compound | IC50 [1] | IC50 [2] | IC50 [3] | IC50 [4] | IC50 [5] | IC50 [6] | other results |
| --- | --- | --- | --- | --- | --- | --- | --- |
| Nc1cccc(-c2csc(NC(=O)CCCCCC(=O)NO)n2)c1 | 3.8 nM | 3.7 nM | 1950 nM | 2.1 nM | 3.3 nM | 26.5 nM | – |
| Nc1ccccc1NC(=O)CCCCCC(=O)Nc1ccccc1 | – | – | – | – | – | – | IC50 [7]: Not Active; IC50 [8]: Not Active; IC50 [9]: Not Active |
| Nc1ccccc1NC(=O)c1ccc(-c2cn(CCc3ccsc3)nn2)cc1 | – | – | – | – | – | – | IC50 [10]: 240 nM |
| Nc1ccccc1NC(=O)c1cnccn1 | – | – | – | – | – | – | IC50 [11]: > 20 µM |
| CC(=O)Nc1ccc(C(=O)Nc2ccc(F)cc2N)cc1 | – | – | – | – | – | – | pKa [12]: 2.33 |
| C=C1CN(Cc2ccc(C(=O)Nc3ccccc3N)cc2)C(=O)c2ccccc21 | – | – | – | – | – | – | IC50 [13]: > 10 µM; IC50 [14]: 5 µM; IC50 [15]: 4.8 µM; IC50 [16]: 30 nM; IC50 [17]: 4.1 µM; IC50 [18]: > 10 µM |
| CCOC(=O)Nc1cccc(-c2csc(NC(=O)CCCCCC(=O)NO)n2)c1 | 2.5 nM | 2.1 nM | 787 nM | 1.3 nM | 0.79 nM | 24.5 nM | – |
| CC(C)(C)OC(=O)Nc1cccc(-c2csc(NC(=O)CCCCCC(=O)Nc3ccccc3N)n2)c1 | 4200 nM | 5300 nM | > 30000 nM | 160 nM | 1500 nM | 1100 nM | – |
| CC(=O)Nc1cccc(-c2csc(NC(=O)CCCCCC(=O)Nc3ccccc3N)n2)c1 | 3200 nM | 3000 nM | > 30000 nM | 30 nM | 11200 nM | 200 nM | – |
| CC(C)(C)OC(=O)Nc1cccc(-c2csc(NC(=O)CCCCCC(=O)NO)n2)c1 | 4.2 nM | 5.7 nM | 2580 nM | 1.7 nM | < 0.17 nM | 21 nM | – |
| CCOC(=O)Nc1cccc(-c2csc(NC(=O)CCCCCC(=O)Nc3ccccc3N)n2)c1 | 24800 nM | > 30000 nM | > 30000 nM | 60 nM | > 30000 nM | 880 nM | – |
| Nc1cccc(-c2csc(NC(=O)CCCCCC(=O)Nc3ccccc3N)n2)c1 | 2490 nM | 2910 nM | > 30000 nM | 60.3 nM | > 30000 nM | 147 nM | – |
| CC(=O)Nc1ccc(C(=O)Nc2ccccc2N)cc1 [TACEDINALINE] | – | – | – | – | – | – | pKa [12]: 3.33 |
